Laboratory results: paper PMC8963254, “Effects of Lysine N-ζ-Methylation in Ultrashort Tetrabasic Lipopeptides (UTBLPs) on the Potentiation of Rifampicin, Novobiocin, and Niclosamide in Gram-Negative Bacteria” (Antibiotics, 2022)
In brackets after ≈: the same amount, converted by molar mass. Where two headings read alike, the source gives them in different places.

How the values were obtained:
E. cloacae 118564 [1] = test: microbe, parasite or virus in culture; assay type: cell-based, Enterobacter cloacae; details: 118564, 18 h
Description: (§1) The in vitro antibacterial activity of the UTBLPs was assessed against wild-type and clinically isolated bacterial strains. To obtain the MIC of the compounds, the microbroth dilution susceptibility assay was performed according to the Clinical and Laboratory Standards Institute (CLSI, Wayne, PA, USA) guidelines and as previously described. Briefly, the compounds at varying concentrations were incubated with bacterial inoculum (5 × 10^5 CFU/mL final concentration) at 37 °C for 18 h. Growth in the form of turbidity was confirmed using an EMax Plus microplate reader (Molecular Devices, San Jose, CA, USA) at 590 nm.

MSSE 81388 = assay type: cell-based, Staphylococcus epidermidis
Description: (§2) The synergy of the UTBLPs with various antibiotics was assessed using checkerboard assay as previously described. Briefly, the combination of antibiotic and OMP at varying concentrations were incubated with bacterial inoculum (5 × 10^5 CFU/mL final concentration) at 37 °C for 18 h. Growth in the form of turbidity was confirmed using an EMax Plus microplate reader (Molecular Devices, Union City, CA, USA) at 590 nm. Fractional inhibitory concentration index (FICI) was used to evaluate the interaction between the antibiotic and the OMP. FICI is the sum of the FIC of the antibiotic and the FIC of the OMP. The FIC value is calculated by dividing the MIC of the agents in combination by the MIC of the agent alone. FICI ≤ 0.5 is synergistic, 0.5 < x ≤ 4 is additive, and >4 is antagonistic.

MRSE 61589 = assay type: cell-based, Staphylococcus epidermidis
Description: as §2

E. faecium ATCC 27270 = assay type: cell-based, Enterococcus faecium; details: ATCC 27270, 18 h
Description: as §1

A. baumannii AB027 = test: microbe, parasite or virus in culture; assay type: cell-based, Acinetobacter baumannii; details: AB027, 18 h
Description: as §1

A. baumannii AB92247 = test: microbe, parasite or virus in culture; assay type: cell-based, Acinetobacter baumannii; details: AB92247, 18 h
Description: as §1

E. cloacae 118564 [2] = assay type: cell-based, Enterobacter cloacae; details: for MICUTBLP: UTBLP alone
Description: as §2

P. aeruginosa PAO1 [3] = assay type: cell-based, Pseudomonas aeruginosa; details: PAO1, 18 h
Description: as §1

[4] = system: P. aeruginosa PA262-101856; assay type: cell-based, Pseudomonas aeruginosa; details: for MICUTBLP: UTBLP alone
Description: as §2

[5] = system: P. aeruginosa PA259-96196; assay type: cell-based, Pseudomonas aeruginosa; details: for MICUTBLP: UTBLP alone
Description: as §2

P. aeruginosa PAO1 [6] = assay type: cell-based, Pseudomonas aeruginosa; details: for MICUTBLP: UTBLP alone
Description: as §2

E. faecalis ATCC 29212 = assay type: cell-based, Enterococcus faecalis; details: ATCC 29212, 18 h
Description: as §1

MRSA ATCC 33592 = assay type: cell-based, Staphylococcus aureus
Description: as §2

S. aureus ATCC 29213 = assay type: cell-based, Staphylococcus aureus
Description: as §2

[7] = system: P. aeruginosa PA262-101856; test: microbe, parasite or virus in culture; assay type: cell-based, Pseudomonas aeruginosa; details: PA262-101856, 18 h
Description: as §1

[8] = system: P. aeruginosa PA259-96196; test: microbe, parasite or virus in culture; assay type: cell-based, Pseudomonas aeruginosa; details: PA259-96196, 18 h
Description: as §1

A. baumannii ATCC 17978 = assay type: cell-based, Acinetobacter baumannii; details: for MICUTBLP: UTBLP alone
Description: as §2

K. pneumoniae 113250 = assay type: cell-based, Klebsiella pneumoniae; details: for MICUTBLP: UTBLP alone
Description: as §2

[9] = UTBLP alone, plate with chloramphenicol
[10] = UTBLP in combination with chloramphenicol
[11] = chloramphenicol in combination with the UTBLP
[12] = UTBLP in combination with novobiocin
[13] = UTBLP in combination with rifampicin
[14] = novobiocin in combination with the UTBLP
[15] = rifampicin in combination with the UTBLP
[16] = UTBLP in combination with niclosamide
[17] = niclosamide in combination with the UTBLP

CCCCCCCC(=O)N[C@@H](CCCCN)C(=O)NCCCN(CCCNC(=O)[C@H](CCCCN)NC(=O)CCCCCCC)CC(=O)N[C@@H](CCCCN)C(N)=O [UTBLP 1]
MIC (E. cloacae 118564 [1]): > 128 µg/mL | Interpretation (MSSE 81388; UTBLP + chloramphenicol): Additive (0.5 < x ≤ 4 is additive) | MICUTBLP (MSSE 81388; [9]): 32 µg/mL | MICUTBLP [MICcombo] (MSSE 81388; [10]): 0.25 µg/mL | MICchloramphenicol [MICcombo] (MSSE 81388; [11]): 4 µg/mL | Interpretation (MRSE 61589; UTBLP + chloramphenicol): Additive (0.5 < x ≤ 4 is additive) | MICUTBLP (MRSE 61589; [9]): 32 µg/mL | MICUTBLP [MICcombo] (MRSE 61589; [10]): 16 µg/mL | MICchloramphenicol [MICcombo] (MRSE 61589; [11]): 2 µg/mL | MIC (E. faecium ATCC 27270): 64 µg/mL (≈ 77.6 µM) | MIC (A. baumannii AB027): 128 µg/mL (≈ 155 µM) | MIC (A. baumannii AB92247): 64 µg/mL (≈ 77.6 µM) | Interpretation (E. cloacae 118564 [2]; UTBLP + novobiocin): Synergy (FICI ≤ 0.5 is synergistic) | Interpretation (E. cloacae 118564 [2]; UTBLP + rifampicin): Synergy (FICI ≤ 0.5 is synergistic) | MICUTBLP (E. cloacae 118564 [2]; plate with novobiocin): > 128 µg/mL | MICUTBLP (E. cloacae 118564 [2]; plate with rifampicin): > 128 µg/mL | MICUTBLP [MICcombo] (E. cloacae 118564 [2]; [12]): 8 µg/mL | MICUTBLP [MICcombo] (E. cloacae 118564 [2]; [13]): 8 µg/mL | MICantibiotic [MICcombo] (E. cloacae 118564 [2]; [14]): 2 µg/mL | MICantibiotic [MICcombo] (E. cloacae 118564 [2]; [15]): 0.125 µg/mL | MIC (P. aeruginosa PAO1 [3]): >128 µg/mL | Interpretation ([4]; UTBLP + novobiocin): Synergy (FICI ≤ 0.5 is synergistic) | Interpretation ([4]; UTBLP + rifampicin): Synergy (FICI ≤ 0.5 is synergistic) | MICUTBLP ([4]; plate with novobiocin): 128 µg/mL | MICUTBLP ([4]; plate with rifampicin): 128 µg/mL | MICUTBLP [MICcombo] [4, 12]: 16 µg/mL | MICUTBLP [MICcombo] [4, 13]: 16 µg/mL | MICantibiotic [MICcombo] [4, 14]: 64 µg/mL | MICantibiotic [MICcombo] [4, 15]: 256 µg/mL | Interpretation ([5]; UTBLP + novobiocin): Synergy (FICI ≤ 0.5 is synergistic) | Interpretation ([5]; UTBLP + rifampicin): Synergy (FICI ≤ 0.5 is synergistic) | MICUTBLP ([5]; plate with novobiocin): > 128 µg/mL | MICUTBLP ([5]; plate with rifampicin): > 128 µg/mL | MICUTBLP [MICcombo] [5, 12]: 8 µg/mL | MICUTBLP [MICcombo] [5, 13]: 16 µg/mL | MICantibiotic [MICcombo] [5, 14]: 128 µg/mL | MICantibiotic [MICcombo] [5, 15]: 0.5 µg/mL | Interpretation (P. aeruginosa PAO1 [6]; UTBLP + chloramphenicol): Synergy (FICI ≤ 0.5 is synergistic) | Interpretation (P. aeruginosa PAO1 [6]; UTBLP + niclosamide): Additive (0.5 < x ≤ 4 is additive) | Interpretation (P. aeruginosa PAO1 [6]; UTBLP + novobiocin): Synergy (FICI ≤ 0.5 is synergistic) | Interpretation (P. aeruginosa PAO1 [6]; UTBLP + rifampicin): Synergy (FICI ≤ 0.5 is synergistic) | MICUTBLP (P. aeruginosa PAO1 [6]; plate with chloramphenicol): > 128 µg/mL | MICUTBLP (P. aeruginosa PAO1 [6]; plate with niclosamide): > 128 µg/mL | MICUTBLP (P. aeruginosa PAO1 [6]; plate with novobiocin): > 128 µg/mL | MICUTBLP (P. aeruginosa PAO1 [6]; plate with rifampicin): > 128 µg/mL | MICUTBLP [MICcombo] (P. aeruginosa PAO1 [6]; [10]): 2 µg/mL | MICUTBLP [MICcombo] (P. aeruginosa PAO1 [6]; [16]): 0.25 µg/mL | MICUTBLP [MICcombo] (P. aeruginosa PAO1 [6]; [12]): 16 µg/mL | MICUTBLP [MICcombo] (P. aeruginosa PAO1 [6]; [13]): 4 µg/mL | MICantibiotic [MICcombo] (P. aeruginosa PAO1 [6]; [11]): 4 µg/mL | MICantibiotic [MICcombo] (P. aeruginosa PAO1 [6]; [17]): 1024 µg/mL | MICantibiotic [MICcombo] (P. aeruginosa PAO1 [6]; [14]): 32 µg/mL | MICantibiotic [MICcombo] (P. aeruginosa PAO1 [6]; [15]): 2 µg/mL | MIC (E. faecalis ATCC 29212): 128 µg/mL (≈ 155 µM) | Interpretation (MRSA ATCC 33592; UTBLP + chloramphenicol): Additive (0.5 < x ≤ 4 is additive) | MICUTBLP (MRSA ATCC 33592; [9]): 128 µg/mL | MICUTBLP [MICcombo] (MRSA ATCC 33592; [10]): 0.25 µg/mL | MICchloramphenicol [MICcombo] (MRSA ATCC 33592; [11]): 64 µg/mL | MICUTBLP (S. aureus ATCC 29213; [9]): 64 µg/mL | MICUTBLP [MICcombo] (S. aureus ATCC 29213; [10]): 0.25 µg/mL | MICchloramphenicol [MICcombo] (S. aureus ATCC 29213; [11]): 8 µg/mL | MIC [7]: 128 µg/mL (≈ 155 µM) | MIC [8]: > 128 µg/mL | Interpretation (A. baumannii ATCC 17978; UTBLP + chloramphenicol): Additive (0.5 < x ≤ 4 is additive) | Interpretation (A. baumannii ATCC 17978; UTBLP + niclosamide): Synergy (FICI ≤ 0.5 is synergistic) | Interpretation (A. baumannii ATCC 17978; UTBLP + novobiocin): Synergy (FICI ≤ 0.5 is synergistic) | Interpretation (A. baumannii ATCC 17978; UTBLP + rifampicin): Synergy (FICI ≤ 0.5 is synergistic) | MICUTBLP (A. baumannii ATCC 17978; plate with chloramphenicol): > 128 µg/mL | MICUTBLP (A. baumannii ATCC 17978; plate with niclosamide): > 128 µg/mL | MICUTBLP (A. baumannii ATCC 17978; plate with novobiocin): > 128 µg/mL | MICUTBLP (A. baumannii ATCC 17978; plate with rifampicin): > 128 µg/mL | MICUTBLP [MICcombo] (A. baumannii ATCC 17978; [10]): 32 µg/mL | MICUTBLP [MICcombo] (A. baumannii ATCC 17978; [16]): 8 µg/mL | MICUTBLP [MICcombo] (A. baumannii ATCC 17978; [12]): 16 µg/mL | MICUTBLP [MICcombo] (A. baumannii ATCC 17978; [13]): 8 µg/mL | MICantibiotic [MICcombo] (A. baumannii ATCC 17978; [11]): 32 µg/mL | MICantibiotic [MICcombo] (A. baumannii ATCC 17978; [17]): 0.5 µg/mL | MICantibiotic [MICcombo] (A. baumannii ATCC 17978; [14]): 0.125 µg/mL | MICantibiotic [MICcombo] (A. baumannii ATCC 17978; [15]): 0.125 µg/mL | Interpretation (K. pneumoniae 113250; UTBLP + novobiocin): Synergy (FICI ≤ 0.5 is synergistic) | Interpretation (K. pneumoniae 113250; UTBLP + rifampicin): Synergy (FICI ≤ 0.5 is synergistic) | MICUTBLP (K. pneumoniae 113250; plate with novobiocin): > 128 µg/mL | MICUTBLP (K. pneumoniae 113250; plate with rifampicin): > 128 µg/mL | MICUTBLP [MICcombo] (K. pneumoniae 113250; [12]): 8 µg/mL | MICUTBLP [MICcombo] (K. pneumoniae 113250; [13]): 16 µg/mL | MICantibiotic [MICcombo] (K. pneumoniae 113250; [14]): 16 µg/mL | MICantibiotic [MICcombo] (K. pneumoniae 113250; [15]): 0.5 µg/mL
